IC50 and GI50 data for 15 molecules are collected here from patent publication US20240116921A1, “LACTAM (HETERO)[…] DERIVATIVES AS INHIBITORS OF ERBB2” (EnLiven Therapeutics, Inc., priority 2020, published 2024).

In assay [1] the target is T1, phosphorylated ERBB2 (pERBB2) (Homo sapiens, UniProt P04626).
T1 construct: endogenous in cells; host or cells: BT-474
As to the kind of experiment: Detection of phosphorylated ERBB2 (pERBB2) by ELISA in BT-474 cells. The class given is cell-based. The settings on record: four hours incubation. A digest of the protocol:
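BT-474 cells (2.0×10^4/well) treated 4 h at 37 °C, 5% CO2 with compounds in four-fold dilutions from 10 µM to 0.01 nM. Lysate pERBB2 measured by ELISA with TMB read at 450 nm; % relative activity scaled between no-cell wells and 0.1% DMSO-treated cells.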
In general terms: In an ELISA, binding on a coated surface is turned into a signal by an enzyme label.

In assay [2] the target is Ba/F3 ERBB2 A775_G776insYVMA (Homo sapiens, UniProt P04626, DUP772-775, cells depend on it). As to the kind of experiment: Cell viability assay, Ba/F3 ERBB2 A775_G776insYVMA. The assay is classed as cell-based, mouse. The settings on record: Ba/F3 ERBB2 YVMA cells, cell viability, 72 hours, CellTiter Glo; Table B5; read-out: Ba/F3 ERBB2 YVMA, IC50. A digest of the protocol:
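IL-3-independent Ba/F3 lines stably expressing the human ERBB2 insertion mutants were seeded at 3000 cells/well and exposed to compounds for 72 h at 37 °C, 5% CO2. Viability was read as ATP by CellTiter-Glo luminescence. Curves were fitted by sigmoidal nonlinear regression.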
In general terms: Cellular ATP, detected with luciferase, serves as a proxy for viable cell number.

Assay [3] addresses T2, phosphorylated EGFR (pEGFR) (Homo sapiens, UniProt P00533).
T2 construct: performed to measure phosphorylated EGFR levels using A431 cells (10% FBS); endogenous in cells; host or cells: A431
Description: Detection of phosphorylated EGFR (pEGFR) in EGF-stimulated A431 cells. The note with it: A431 cells (10% FBS), 4 hours incubation, EGF 30 ng/mL 10 minutes, AlphaLISA. The assay is classed as cell-based. A digest of the protocol:
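A431 cells in 10% FBS were preincubated with compound for 4 h at 37 °C, then stimulated with EGF (30 ng/mL final) for 10 min. pEGFR in lysates was read by AlphaLISA. % inhibition was calculated against DMSO and staurosporine-treated controls, and IC50 came from a four-parameter curve fit.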
(In Alpha technology, singlet oxygen from a donor bead excites a nearby acceptor bead.)

T2 sequence (P00533 25-1210): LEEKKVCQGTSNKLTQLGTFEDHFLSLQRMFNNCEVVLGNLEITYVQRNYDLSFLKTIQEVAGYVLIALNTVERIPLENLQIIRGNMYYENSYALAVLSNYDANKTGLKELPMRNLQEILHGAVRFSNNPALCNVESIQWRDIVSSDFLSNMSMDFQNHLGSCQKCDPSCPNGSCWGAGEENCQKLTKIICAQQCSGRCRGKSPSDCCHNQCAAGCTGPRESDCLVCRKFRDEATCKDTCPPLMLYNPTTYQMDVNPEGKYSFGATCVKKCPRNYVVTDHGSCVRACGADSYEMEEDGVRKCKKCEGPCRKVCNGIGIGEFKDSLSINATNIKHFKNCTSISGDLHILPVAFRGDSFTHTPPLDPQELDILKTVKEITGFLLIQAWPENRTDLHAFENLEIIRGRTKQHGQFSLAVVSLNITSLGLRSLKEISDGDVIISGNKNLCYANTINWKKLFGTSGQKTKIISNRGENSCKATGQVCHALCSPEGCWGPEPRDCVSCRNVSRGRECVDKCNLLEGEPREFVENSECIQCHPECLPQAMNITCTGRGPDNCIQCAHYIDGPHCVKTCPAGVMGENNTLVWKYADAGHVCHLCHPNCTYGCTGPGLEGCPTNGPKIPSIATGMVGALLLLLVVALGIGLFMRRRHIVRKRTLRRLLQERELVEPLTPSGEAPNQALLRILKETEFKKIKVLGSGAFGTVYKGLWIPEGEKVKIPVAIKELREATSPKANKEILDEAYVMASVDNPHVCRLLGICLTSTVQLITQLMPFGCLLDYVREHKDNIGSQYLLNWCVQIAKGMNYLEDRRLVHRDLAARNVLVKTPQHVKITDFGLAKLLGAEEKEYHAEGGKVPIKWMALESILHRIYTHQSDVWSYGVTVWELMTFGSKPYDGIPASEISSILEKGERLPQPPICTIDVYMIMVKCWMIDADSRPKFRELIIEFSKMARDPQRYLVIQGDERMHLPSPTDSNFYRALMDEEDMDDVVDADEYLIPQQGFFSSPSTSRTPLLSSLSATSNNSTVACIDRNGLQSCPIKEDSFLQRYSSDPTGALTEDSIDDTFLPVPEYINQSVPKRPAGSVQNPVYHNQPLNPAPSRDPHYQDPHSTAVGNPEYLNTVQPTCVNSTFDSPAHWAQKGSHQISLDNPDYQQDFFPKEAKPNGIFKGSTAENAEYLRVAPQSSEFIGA
T1 sequence (P04626 23-1255): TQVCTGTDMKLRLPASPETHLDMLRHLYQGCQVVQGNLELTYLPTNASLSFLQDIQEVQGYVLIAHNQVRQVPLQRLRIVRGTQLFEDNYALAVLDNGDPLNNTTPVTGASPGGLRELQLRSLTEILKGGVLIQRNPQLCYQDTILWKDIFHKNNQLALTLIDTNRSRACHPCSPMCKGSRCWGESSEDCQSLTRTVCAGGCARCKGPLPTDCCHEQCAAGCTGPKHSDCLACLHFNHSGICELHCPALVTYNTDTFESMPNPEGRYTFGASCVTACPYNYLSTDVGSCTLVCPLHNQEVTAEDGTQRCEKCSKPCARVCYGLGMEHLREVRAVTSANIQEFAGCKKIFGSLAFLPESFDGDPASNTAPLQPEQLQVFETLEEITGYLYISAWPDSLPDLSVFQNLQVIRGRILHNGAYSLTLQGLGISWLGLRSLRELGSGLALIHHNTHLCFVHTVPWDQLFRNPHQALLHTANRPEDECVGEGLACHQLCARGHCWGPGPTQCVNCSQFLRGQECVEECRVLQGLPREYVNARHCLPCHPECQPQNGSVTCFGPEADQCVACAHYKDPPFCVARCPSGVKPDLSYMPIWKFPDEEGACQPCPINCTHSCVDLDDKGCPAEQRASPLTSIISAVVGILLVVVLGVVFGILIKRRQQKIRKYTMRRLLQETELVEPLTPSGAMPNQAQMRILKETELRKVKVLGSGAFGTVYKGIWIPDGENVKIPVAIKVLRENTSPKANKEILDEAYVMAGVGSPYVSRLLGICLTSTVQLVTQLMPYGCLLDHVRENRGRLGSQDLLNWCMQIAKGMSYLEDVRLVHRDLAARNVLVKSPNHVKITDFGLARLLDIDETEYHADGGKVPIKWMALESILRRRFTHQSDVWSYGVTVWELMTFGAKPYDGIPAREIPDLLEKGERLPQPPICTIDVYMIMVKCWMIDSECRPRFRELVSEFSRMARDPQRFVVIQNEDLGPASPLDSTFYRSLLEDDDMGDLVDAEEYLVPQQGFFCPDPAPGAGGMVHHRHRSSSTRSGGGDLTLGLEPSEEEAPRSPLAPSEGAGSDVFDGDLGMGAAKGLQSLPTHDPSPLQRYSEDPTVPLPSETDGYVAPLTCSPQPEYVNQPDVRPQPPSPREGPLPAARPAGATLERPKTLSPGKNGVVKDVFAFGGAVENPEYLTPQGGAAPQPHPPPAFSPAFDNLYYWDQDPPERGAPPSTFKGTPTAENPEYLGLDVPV
Ba/F3 ERBB2 A775_G776insYVMA, sequence (P04626 with tags, fused parts or gaps DUP772-775): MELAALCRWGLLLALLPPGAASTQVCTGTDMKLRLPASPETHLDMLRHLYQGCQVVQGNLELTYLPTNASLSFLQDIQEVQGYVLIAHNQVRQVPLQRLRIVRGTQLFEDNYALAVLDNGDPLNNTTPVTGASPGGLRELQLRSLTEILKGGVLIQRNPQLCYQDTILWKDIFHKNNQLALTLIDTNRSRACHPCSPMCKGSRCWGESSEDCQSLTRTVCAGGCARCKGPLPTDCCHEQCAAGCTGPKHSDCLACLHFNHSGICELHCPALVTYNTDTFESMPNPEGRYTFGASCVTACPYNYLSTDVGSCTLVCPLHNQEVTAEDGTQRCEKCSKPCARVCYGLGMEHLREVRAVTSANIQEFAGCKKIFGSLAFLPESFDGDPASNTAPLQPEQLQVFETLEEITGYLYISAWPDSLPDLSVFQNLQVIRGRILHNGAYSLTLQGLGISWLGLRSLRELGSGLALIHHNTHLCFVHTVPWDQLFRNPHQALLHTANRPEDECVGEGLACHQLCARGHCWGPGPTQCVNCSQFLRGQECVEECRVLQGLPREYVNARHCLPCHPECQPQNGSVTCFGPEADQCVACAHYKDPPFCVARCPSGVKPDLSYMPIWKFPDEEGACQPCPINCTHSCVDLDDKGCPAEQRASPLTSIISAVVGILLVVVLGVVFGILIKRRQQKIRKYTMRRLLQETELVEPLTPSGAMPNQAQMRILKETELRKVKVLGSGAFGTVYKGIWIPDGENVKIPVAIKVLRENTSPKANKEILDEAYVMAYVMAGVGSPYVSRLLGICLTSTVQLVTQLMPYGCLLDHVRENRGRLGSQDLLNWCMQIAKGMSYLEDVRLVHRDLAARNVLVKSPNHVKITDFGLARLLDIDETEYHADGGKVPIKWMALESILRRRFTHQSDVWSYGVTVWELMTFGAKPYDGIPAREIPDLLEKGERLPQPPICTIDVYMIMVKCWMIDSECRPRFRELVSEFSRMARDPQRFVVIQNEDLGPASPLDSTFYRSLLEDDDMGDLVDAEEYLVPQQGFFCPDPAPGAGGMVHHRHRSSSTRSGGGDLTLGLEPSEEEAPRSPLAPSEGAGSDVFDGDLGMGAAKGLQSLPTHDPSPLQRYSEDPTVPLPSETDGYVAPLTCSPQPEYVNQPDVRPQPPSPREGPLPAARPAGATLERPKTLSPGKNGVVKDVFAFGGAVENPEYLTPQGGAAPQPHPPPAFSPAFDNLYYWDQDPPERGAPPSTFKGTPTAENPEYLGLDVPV

Broadly, the IC50 is the point on the concentration scale where inhibition reaches its midpoint. Lower therefore signals greater potency in that assay. Regarding `CN(C)C/C=C1\CCN(c2ccc3ncnc(Nc4ccc(Oc5ccc6c(c5)ncn6C)c(Cl)c4)c3n2)C1=O` [Compound 98, (E)-1-(4-((3-chloro-4-((1-methyl-1H-benzo[d]imidazol-5-yl)oxy)phenyl)amino)pyrido[3,2-d]pyrimidin-6-yl)-3-(2-(dimethylamino)ethylidene)pyrrolidin-2-one], the IC50 in assay [1] came out at 40.3 nM; in assay [3] it was 942 nM. Moreover, in assay [2], the GI50 came to 1.81 nM.
On to `CN(C)C/C=C1\CCN(c2ccc3ncnc(Nc4ccc(Oc5ccc6c(c5)ncn6C)cc4F)c3n2)C1=O` [Compound 99, (3E)-3-[2-(dimethylamino)ethylidene]-1-[4-({2-fluoro-4-[(1-methyl-1,3-benzodiazol-5-yl)oxy]phenyl}amino)pyrido[3,2-d]pyrimidin-6-yl]pyrrolidin-2-one], for which the IC50 in assay [1] was 38.8 nM; in assay [3], above 10000 nM. In assay [2], the GI50 is 6.64 nM.
In the same order, the values of `CNC/C=C1\CCN(c2ccc3ncnc(Nc4ccc(Oc5ccc6c(c5)ncn6C)c(C)c4)c3n2)C1=O` [Compound 100, (3E)-1-[4-({3-methyl-4-[(1-methyl-1,3-benzodiazol-5-yl)oxy]phenyl}amino)pyrido[3,2-d]pyrimidin-6-yl]-3-[2-(methylamino)ethylidene]pyrrolidin-2-one; formic acid] are 57.7 nM, 157 nM and 3.19 nM.
For `Cc1cc(Nc2ncnc3cnc(N4CC/C(=C\CN(C)C)C4=O)cc23)ccc1Oc1ccc2c(c1)nnn2C` [Compound 101, (E)-3-(2-(dimethylamino)ethylidene)-1-(4-((3-methyl-4-((1-methyl-1H-benzo[d][1,2,3]triazol-5-yl)oxy)phenyl)amino)pyrido[3,4-d]pyrimidin-6-yl)pyrrolidin-2-one], the values for the IC50 in assay [1] and in assay [3] were 22.3 nM and 1160 nM, respectively. In addition, the GI50 in assay [2] is 4.32 nM.
As for `Cc1cc(Nc2ncnc3cnc(N4CC/C(=C\CN5CCC5)C4=O)cc23)ccc1Oc1ccn2ncnc2c1` [Compound 102, (E)-1-(4-((4-([1,2,4]triazolo[1,5-a]pyridin-7-yloxy)-3-methylphenyl)amino)pyrido[3,4-d]pyrimidin-6-yl)-3-(2-(azetidin-1-yl)ethylidene)pyrrolidin-2-one], the 50% inhibitory concentration (IC50) was 8.26 nM in assay [1] and 3010 nM in assay [3]. Moreover, in assay [2], the GI50 is 7.51 nM.
Regarding `[2H]C([2H])([2H])N(C/C=C1\CCN(c2ccc3ncnc(Nc4ccc(Oc5ccc6c(c5)ncn6C)c(C)c4)c3n2)C1=O)C([2H])([2H])[2H]` [Compound 105, (E)-3-(2-(bis(methyl-d3)amino)ethylidene)-1-(4-((3-methyl-4-((1-methyl-1H-benzo[d]imidazol-5-yl)oxy)phenyl)amino)pyrido[3,2-d]pyrimidin-6-yl)pyrrolidin-2-one], the IC50 in assay [1] amounted to 43.7 nM; in assay [3] it was 503 nM. Moreover, in assay [2], the GI50 came to 2.17 nM.
As to `[2H]C([2H])([2H])N(C/C=C1\CCN(c2ccc3ncnc(Nc4ccc(Oc5ccc6c(c5)ncn6C([2H])([2H])[2H])c(C)c4)c3n2)C1=O)C([2H])([2H])[2H]` [Compound 106, (E)-3-(2-(bis(methyl-d3)amino)ethylidene)-1-(4-((3-methyl-4-((1-(methyl-d3)-1H-benzo[d]imidazol-5-yl)oxy)phenyl)amino)pyrido[3,2-d]pyrimidin-6-yl)pyrrolidin-2-one], the IC50 in assay [1] is 28.2 nM; in assay [3], 1690 nM. Besides, the GI50 in assay [2] was determined as 2.99 nM.
On to `Cc1cc(Nc2ncnc3cnc(N4CC/C(=C\CN(C)C)C4=O)cc23)ccc1Oc1ccn2nnnc2c1` [Compound 107, (3E)-3-[2-(dimethylamino)ethylidene]-1-{4-[(3-methyl-4-{[1,2,3,4]tetrazolo[1,5-a]pyridin-7-yloxy}phenyl)amino]pyrido[3,4-d]pyrimidin-6-yl}pyrrolidin-2-one], for which the IC50 is 21.6 nM in assay [1] and above 10000 nM in assay [3]. Moreover, the GI50 in assay [2] was 81.3 nM.
On to `Cc1cc(Nc2ncnc3ccc(N4CC/C(=C\CN(C)C)C4=O)nc23)ccc1Oc1ccn2nnnc2c1` [Compound 108, (3E)-3-[2-(dimethylamino)ethylidene]-1-{4-[(3-methyl-4-{[1,2,3,4]tetrazolo[1,5-a]pyridin-7-yloxy}phenyl)amino]pyrido[3,2-d]pyrimidin-6-yl}pyrrolidin-2-one], for which the half-inhibitory concentration (IC50) is 13.2 nM in assay [1] and 3410 nM in assay [3]. In addition, the GI50 in assay [2] is 11.1 nM.
`Cc1cc(Nc2ncnc3ccc(N4CC/C(=C\[C@H](C)N(C)C)C4=O)nc23)ccc1Oc1ccn2ncnc2c1` [Compound 113, (S,E)-1-(4-((4-([1,2,4]triazolo[1,5-a]pyridin-7-yloxy)-3-methylphenyl)amino)pyrido[3,2-d]pyrimidin-6-yl)-3-(2-(dimethylamino)propylidene)pyrrolidin-2-one]: the half-maximal inhibitory concentration (IC50) in assay [1] is 327 nM; in assay [3] it was above 10000 nM. For the same molecule, the GI50 in assay [2] was above 500 nM.
For the molecule `Cc1cc(Nc2ncnc3ccc(N4CC/C(=C\[C@@H](C)N(C)C)C4=O)nc23)ccc1Oc1ccn2ncnc2c1` [Compound 114, (R,E)-1-(4-((4-([1,2,4]triazolo[1,5-a]pyridin-7-yloxy)-3-methylphenyl)amino)pyrido[3,2-d]pyrimidin-6-yl)-3-(2-(dimethylamino)propylidene)pyrrolidin-2-one], the IC50 in assay [1] is 31.1 nM; in assay [3], above 10000 nM. For the same molecule, the GI50 in assay [2] is 24.3 nM.
For the molecule `[2H]C([2H])([2H])n1nnc2cc(Oc3ccc(Nc4ncnc5ccc(N6CC/C(=C\CN(C)C)C6=O)nc45)cc3C)ccc21` [Compound 117, (E)-3-(2-(dimethylamino)ethylidene)-1-(4-((3-methyl-4-((1-(methyl-d3)-1H-benzo[d][1,2,3]triazol-5-yl)oxy)phenyl)amino)pyrido[3,2-d]pyrimidin-6-yl)pyrrolidin-2-one], the IC50 was 19.2 nM in assay [1] and above 10000 nM in assay [3]. In addition, the GI50 in assay [2] amounted to 2 nM.
Turning to `Cc1cc(Nc2ncnc3ccc(N4CC/C(=C\CN(C)C)C4=O)nc23)ccc1Oc1ccc2[nH]cnc2c1` [Compound 118, (3E)-1-(4-{[4-(1H-1,3-benzodiazol-5-yloxy)-3-methylphenyl]amino}pyrido[3,2-d]pyrimidin-6-yl)-3-[2-(dimethylamino)ethylidene]pyrrolidin-2-one], the concentration for half-maximal inhibition (IC50) in assay [1] was 10.3 nM; in assay [3], 177 nM. In addition, the GI50 in assay [2] was 1.55 nM.
With `[2H]C([2H])([2H])n1cnc2cc(Oc3ccc(Nc4ncnc5ccc(N6CC/C(=C\CN(C)C)C6=O)nc45)cc3C)ccc21` [Compound 119, (E)-3-(2-(dimethylamino)ethylidene)-1-(4-((3-methyl-4-((1-(methyl-d3)-1H-benzo[d]imidazol-5-yl)oxy)phenyl)amino)pyrido[3,2-d]pyrimidin-6-yl)pyrrolidin-2-one], the 50% inhibitory concentration (IC50) in assay [1] was determined as 15.4 nM; in assay [3], 521 nM. Also, the GI50 in assay [2] came to 1.18 nM.
On to `Cc1cc(Nc2c(C#N)cnc3ccc(N4CC/C(=C\CN(C)C)C4=O)nc23)ccc1Oc1ccc2c(c1)ncn2C` [Compound 124, 6-[(3E)-3-[2-(dimethylamino)ethylidene]-2-oxopyrrolidin-1-yl]-4-({3-methyl-4-[(1-methyl-1,3-benzodiazol-5-yl)oxy]phenyl}amino)-1,5-naphthyridine-3-carbonitrile], for which the IC50 in assay [1] is 163 nM; in assay [3] it was above 10000 nM. Further, the GI50 in assay [2] is 34.2 nM.
